The values that follow come from patent US20170334899A1, “AMINO-SUBSTITUTED ISOTHIAZOLES” (Bayer Pharma Aktiengesellschaft, priority 2014, published 2017).

For experiment [1], the system named is human cervical tumor cell line HeLa (ATCC CCL-2). In words: SAC-Formation - Paclitaxel-Induced Assay. Particulars: 24 h, HeLa cells, paclitaxel 0.05 μM, test range 0.005 μM-20 μM, read-out: IC50 [mol/l] SAC-Formation - Paclitaxel-Induced Assay. In kind it is cell-based. In short, it runs like this:
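Read-out is high-content imaging of anti-phospho-H3 Ser10 (mitosis) and Hoechst 33342 (DNA, cell number), with decreased mitotic fraction marking checkpoint breakthrough. Compounds (0.005–20 μM) and 0.05 μM paclitaxel co-added to overnight-plated HeLa for 24 h at 37° C; four-parameter Hill fit.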

The next experiment has as its target T1, CDK2/CycE (Homo sapiens, UniProt P24941).
T1 construct: GST; purchased ProQinase GmbH (Freiburg, Germany); host or cells: insect cells (Sf9)
Briefly: CDK2/CycE kinase assay (TR-FRET). The class given is biochemical. Particulars: avg, read-out: CDK2 avg (IC50 [mol/l]). In short, it runs like this:
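Read-out is a TR-FRET 665/620 nm emission ratio from EDTA-stopped reactions detected with anti-pRB(pSer807/pSer811), Eu-labelled anti-mouse IgG and streptavidin-XL665, scaled between no-enzyme and uninhibited wells. Reaction: Sf9-expressed GST-CDK2/GST-CycE, 15 min compound preincubation, 10 μM ATP, 0.75 μM biotin-peptide, 25 min, 22° C., pH 8.0 Tris buffer.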

Where two headings read alike, the source gives them in different places.

Consider `Cc1nsc(Nc2cnc(C(F)(F)F)cn2)c1C(=O)Nc1ccc(O[C@H]2CCCN(CCC(F)(F)F)C2)nc1` [Example 390, 3-methyl-5-{[5-(trifluoromethyl)pyrazin-2-yl]amino}-N-(6-{[(3S)-1-(3,3,3-trifluoropropyl)piperidin-3-yl]oxy}pyridin-3-yl)-1,2-thiazole-4-carboxamide], for which the IC50 in experiment [1] (Homo sapiens, HeLa) is 110 nM; on CDK2/CycE, over 20000 nM.

Regarding `Cc1nsc(Nc2cnc(C(F)(F)F)cn2)c1C(=O)Nc1ccc(OCCN(C)CC(F)F)nc1` [Example 349, N-(6-{2-[(2,2-difluoroethyl)(methyl)amino]ethoxy}pyridin-3-yl)-3-methyl-5-{[5-(trifluoromethyl)pyrazin-2-yl]amino}-1,2-thiazole-4-carboxamide], the IC50 in experiment [1] (Homo sapiens, HeLa) was 50 nM; on CDK2/CycE, at least 20000 nM.

As for `Cc1nsc(Nc2cnc(C(F)(F)F)cn2)c1C(=O)Nc1ccc(OCC2CCN(CC(F)(F)F)CC2(F)F)nc1` (centres unmarked) [Example 392, N-(6-{[3,3-difluoro-1-(2,2,2-trifluoroethyl)piperidin-4-yl]methoxy}pyridin-3-yl)-3-methyl-5-{[5-(trifluoromethyl)pyrazin-2-yl]amino}-1,2-thiazole-4-carboxamide], the IC50 in experiment [1] is 27 nM; in experiment [1] (Homo sapiens, HeLa), 30 nM; at CDK2/CycE it was over 20000 nM.

Regarding `Cc1nsc(Nc2cnc(C(F)(F)F)cn2)c1C(=O)Nc1ccc(OC2CCN(C(CF)CF)CC2)nc1` [Example 324, N-(6-{[1-(1,3-difluoropropan-2-yl)piperidin-4-yl]oxy}pyridin-3-yl)-3-methyl-5-{[5-(trifluoromethyl)pyrazin-2-yl]amino}-1,2-thiazole-4-carboxamide], the IC50 in experiment [1] (Homo sapiens, HeLa) was 870 nM; on CDK2/CycE it was at least 20000 nM.

Take `Cc1nsc(Nc2cnc(C(F)(F)F)cn2)c1C(=O)Nc1ccc(CCC2CCN(CC(F)F)CC2)nc1` [Example 356, N-(6-{2-[1-(2,2-difluoroethyl)piperidin-4-yl]ethyl}pyridin-3-yl)-3-methyl-5-{[5-(trifluoromethyl)pyrazin-2-yl]amino}-1,2-thiazole-4-carboxamide]: the IC50 in experiment [1] (Homo sapiens, HeLa) is 250 nM; at CDK2/CycE, over 20000 nM.

In the case of `Cc1nsc(Nc2cnc(C(F)(F)F)cn2)c1C(=O)Nc1ccc(O[C@@H]2CCN(CC(F)F)C[C@H]2F)nc1` [Example 366, N-(6-{[(3R,4R)-1-(2,2-difluoroethyl)-3-fluoropiperidin-4-yl]oxy}pyridin-3-yl)-3-methyl-5-{[5-(trifluoromethyl)pyrazin-2-yl]amino}-1,2-thiazole-4-carboxamide], the IC50 in experiment [1] (Homo sapiens, HeLa) is 98 nM; on CDK2/CycE, over 20000 nM.

As for `Cc1nsc(Nc2ccc(C#N)cn2)c1C(=O)Nc1ccc(OC2CCN(CC(F)(F)F)CC2)nc1` [Example 30, 5-[(5-Cyanopyridin-2-yl)amino]-3-methyl-N-(6-{[1-(2,2,2-trifluoroethyl)piperidin-4-yl]oxy}pyridin-3-yl)-1,2-thiazole-4-carboxamide], the IC50 in experiment [1] (Homo sapiens, HeLa) was 420 nM; at CDK2/CycE it was at least 20000 nM.

For `Cc1nsc(Nc2cnc(C(F)(F)F)cn2)c1C(=O)Nc1ccc(OCC2CCN(CCF)CC2)nc1` [Example 344, N-(6-{[1-(2-fluoroethyl)piperidin-4-yl]methoxy}pyridin-3-yl)-3-methyl-5-{[5-(trifluoromethyl)pyrazin-2-yl]amino}-1,2-thiazole-4-carboxamide], the IC50 in experiment [1] (Homo sapiens, HeLa) was 280 nM; at CDK2/CycE, at least 20000 nM.

For the compound `Cc1nsc(Nc2cnc(C(F)(F)F)cn2)c1C(=O)Nc1ccc(F)c(OC[C@@H]2CCCN(CC(F)F)C2)c1` [Example 341, N-(3-{[(3R)-1-(2,2-difluoroethyl)piperidin-3-yl]methoxy}-4-fluorophenyl)-3-methyl-5-{[5-(trifluoromethyl)pyrazin-2-yl]amino}-1,2-thiazole-4-carboxamide], the IC50 in experiment [1] (Homo sapiens, HeLa) was 37 nM; on CDK2/CycE it was over 20000 nM.

In the case of `Cc1nsc(Nc2cnc(C(F)(F)F)cn2)c1C(=O)Nc1ccc(OCC2CCCN(CCF)C2)nc1` (centres unmarked) [Example 325, N-(6-{[1-(2-fluoroethyl)piperidin-3-yl]methoxy}pyridin-3-yl)-3-methyl-5-{[5-(trifluoromethyl)pyrazin-2-yl]amino}-1,2-thiazole-4-carboxamide], the IC50 is 53 nM in experiment [1] (Homo sapiens, HeLa) and at least 20000 nM on CDK2/CycE.

In the case of `Cc1nsc(Nc2cnc(C(F)(F)F)cn2)c1C(=O)Nc1ccc(OCCCN(C)CCC(F)(F)F)nc1` [Example 355, 3-methyl-N-(6-{3-[methyl(3,3,3-trifluoropropyl)amino]propoxy}pyridin-3-yl)-5-{[5-(trifluoromethyl)pyrazin-2-yl]amino}-1,2-thiazole-4-carboxamide], the IC50 was 190 nM in experiment [1] (Homo sapiens, HeLa) and at least 20000 nM at CDK2/CycE.

Consider `Cc1nsc(Nc2cnc(C(F)(F)F)cn2)c1C(=O)Nc1ccc(O[C@@H]2CCN(CC(F)F)C2)nc1` [Example 379, N-(6-{[(3R)-1-(2,2-difluoroethyl)pyrrolidin-3-yl]oxy}pyridin-3-yl)-3-methyl-5-{[5-(trifluoromethyl)pyrazin-2-yl]amino}-1,2-thiazole-4-carboxamide], for which the IC50 in experiment [1] (Homo sapiens, HeLa) was 96 nM; on CDK2/CycE, over 20000 nM.

In the case of `Cc1nsc(Nc2cnc(C(F)(F)F)cn2)c1C(=O)Nc1ccc(F)c(OC[C@@H]2CCN(CC(F)(F)F)C2)c1` [Example 339, N-(4-fluoro-3-{[(3R)-1-(2,2,2-trifluoroethyl)pyrrolidin-3-yl]methoxy}phenyl)-3-methyl-5-{[5-(trifluoromethyl)pyrazin-2-yl]amino}-1,2-thiazole-4-carboxamide], the IC50 in experiment [1] (Homo sapiens, HeLa) was 12 nM; on CDK2/CycE, over 20000 nM.

`Cc1nsc(Nc2cnc(C(F)(F)F)cn2)c1C(=O)Nc1ccc(OCCCN(C)CCF)nc1` [Example 352, N-(6-{3-[(2-fluoroethyl)(methyl)amino]propoxy}pyridin-3-yl)-3-methyl-5-{[5-(trifluoromethyl)pyrazin-2-yl]amino}-1,2-thiazole-4-carboxamide]: the IC50 in experiment [1] (Homo sapiens, HeLa) is 520 nM; on CDK2/CycE it was at least 20000 nM.

On to `Cc1nsc(Nc2cnc(C(F)(F)F)cn2)c1C(=O)Nc1ccc(N2CCN(CCC(F)(F)F)CC2)cn1` [Example 374, 3-methyl-5-{[5-(trifluoromethyl)pyrazin-2-yl]amino}-N-{5-[4-(3,3,3-trifluoropropyl)piperazin-1-yl]pyridin-2-yl}-1,2-thiazole-4-carboxamide], for which the IC50 in experiment [1] (Homo sapiens, HeLa) is 210 nM; on CDK2/CycE, over 20000 nM.

For the compound `Cc1nsc(Nc2cnc(C(F)(F)F)cn2)c1C(=O)Nc1ccc(O[C@@H]2CCN(CCC(F)(F)F)C2)nc1` [Example 381, 3-methyl-5-{[5-(trifluoromethyl)pyrazin-2-yl]amino}-N-(6-{[(3R)-1-(3,3,3-trifluoropropyl)pyrrolidin-3-yl]oxy}pyridin-3-yl)-1,2-thiazole-4-carboxamide], the IC50 in experiment [1] (Homo sapiens, HeLa) is 140 nM; at CDK2/CycE, over 20000 nM.

Regarding `CCCN1CC[C@@H](Oc2ccc(NC(=O)c3c(C)nsc3Nc3cnc(C(F)(F)F)cn3)cn2)[C@H](F)C1` [Example 371, N-(6-{[(3R,4R)-3-fluoro-1-propylpiperidin-4-yl]oxy}pyridin-3-yl)-3-methyl-5-{[5-(trifluoromethyl)pyrazin-2-yl]amino}-1,2-thiazole-4-carboxamide], the IC50 in experiment [1] (Homo sapiens, HeLa) is 51 nM; at CDK2/CycE it was over 20000 nM.

As for `Cc1nsc(Nc2cnc(C(F)(F)F)cn2)c1C(=O)Nc1ccc(O[C@H]2CCN(CCC(F)(F)F)C2)nc1` [Example 384, 3-methyl-5-{[5-(trifluoromethyl)pyrazin-2-yl]amino}-N-(6-{[(3S)-1-(3,3,3-trifluoropropyl)pyrrolidin-3-yl]oxy}pyridin-3-yl)-1,2-thiazole-4-carboxamide], the IC50 in experiment [1] (Homo sapiens, HeLa) is 32 nM; on CDK2/CycE it was over 20000 nM.

For `Cc1nsc(Nc2cnc3ccccc3n2)c1C(=O)Nc1ccc(OC2CCCN(CC(F)F)C2)nc1` (centres unmarked) [Example 33, N-(6-{[1-(2,2-Difluoroethyl)piperidin-3-yl]oxy}pyridin-3-yl)-3-methyl-5-(quinoxalin-2-ylamino)-1,2-thiazole-4-carboxamide], the IC50 in experiment [1] (Homo sapiens, HeLa) was 74 nM; on CDK2/CycE, at least 20000 nM.

For `Cc1nsc(Nc2cncc(C(F)(F)F)n2)c1C(=O)Nc1ccc(F)c(OC2CCN(CCC(F)(F)F)CC2)c1` [Example 343, N-(4-fluoro-3-{[1-(3,3,3-trifluoropropyl)piperidin-4-yl]oxy}phenyl)-3-methyl-5-{[6-(trifluoromethyl)pyrazin-2-yl]amino}-1,2-thiazole-4-carboxamide], the IC50 in experiment [1] (Homo sapiens, HeLa) is 210 nM; at CDK2/CycE, at least 20000 nM.

As for `Cc1nsc(Nc2cnc(C(F)(F)F)cn2)c1C(=O)Nc1ccc(OC2CCCN(C(CF)CF)C2)nc1` (centres unmarked) [Example 333, N-(6-{[1-(1,3-difluoropropan-2-yl)piperidin-3-yl]oxy}pyridin-3-yl)-3-methyl-5-{[5-(trifluoromethyl)pyrazin-2-yl]amino}-1,2-thiazole-4-carboxamide], the IC50 in experiment [1] (Homo sapiens, HeLa) was 200 nM; on CDK2/CycE it was at least 20000 nM.

`Cc1nsc(Nc2cnc(C(F)(F)F)cn2)c1C(=O)Nc1ccc(F)c(OC[C@H]2CCN(CCC(F)(F)F)C2)c1` [Example 399, N-(4-fluoro-3-{[(3S)-1-(3,3,3-trifluoropropyl)pyrrolidin-3-yl]methoxy}phenyl)-3-methyl-5-{[5-(trifluoromethyl)pyrazin-2-yl]amino}-1,2-thiazole-4-carboxamide]: the IC50 at CDK2/CycE was over 20000 nM.
